Assay results: article PMC3043256 (Cancer Chemotherapy and Pharmacology, 2010)
Where two headings read alike, the source gives them in different places.

What was measured:
[1] = Midazolam pharmacokinetics; format: in vivo, human
[2] = cited from earlier work
[3] = system: organic anion transporting polypeptides (OATPs); settings: in vitro; cited from earlier work
[4] = format: in vivo, human; settings: for Increase of sunitinib exposure by grapefruit juice: model estimate; for AUC(0-t): AUC0–24 h
[5] = Literature clinical pharmacokinetics of sunitinib; settings: follows from half-life ~50 h
[6] = cited from earlier work; remark: listed apart in the source
ABCB1 = settings: in vitro; cited from earlier work
ABCG2 = settings: in vitro; cited from earlier work
[7] = cited from earlier work; remark: listed apart in the source
[8] = final population PK model, cancer patients
[9] = human, plasma, oral, sunitinib with grapefruit juice when simultaneously taken, mean (range)
[10] = sunitinib with grapefruit juice when simultaneously taken, mean (range)

**Q.** What does the source list for Cc1ncc2n1-c1ccc(Cl)cc1C(c1ccccc1F)=NC2 [midazolam]?
**A.** AUC(0-t) ([1]; human, plasma, po, 7.5 mg, Midazolam AUC0–24 h, without GJ, single oral 7.5 mg midazolam, mean (±SEM)): 122 ng·h/mL; Increase of midazolam exposure (AUC0–24 h) by GJ ([1]; second vs first PK day): ~ 50%

**Q.** For Cc1cn(-c2cc(NC(=O)c3ccc(C)c(Nc4nccc(-c5cccnc5)n4)c3)cc(C(F)(F)F)c2)cn1 [nilotinib], which “Effect of grapefruit juice on drug exposure” value [2] is on record?
**A.** Its value is “increase”.

**Q.** For CCN(CC)CCNC(=O)c1c(C)[nH]c(/C=C2\C(=O)Nc3ccc(F)cc32)c1C [sunitinib, Sunitinib malate], which “Affinity for OATPs” value [3] is on record?
**A.** Its value is “no affinity”.

**Q.** What about the “Increase of sunitinib exposure by grapefruit juice” value (from here on “Increase of sunitinib exposure”) ([4]; GJ consumed 7 h before the sunitinib dose) of the same compound?
**A.** Its value is ~ 8.9%.

**Q.** And the “Absorption lag time, estimate” value [4, 8]?
**A.** The value was 0.487 h.

**Q.** What about the “ka (absorption rate constant), estimate” value [4, 8] of the same compound?
**A.** The value was 0.468 h⁻¹.

**Q.** What about the “Cl/F (apparent clearance), estimate” value ([4]; final population PK model, cancer patients, oral sunitinib 25-50 mg once daily) of the same compound?
**A.** Its value is 50.5 L/h.

**Q.** And the Tmax ([4]; human, plasma, oral)?
**A.** The Tmax was 8.2 h.

**Q.** What about the Vd/F ([4]; human, plasma, oral) of the same compound?
**A.** Its Vd/F is 3210 L.

**Q.** What about the half-life ([4]; human, plasma, oral) of the same compound?
**A.** The half-life was 53 h.

**Q.** And the AUC(0-t) [4, 9]?
**A.** The AUC(0-t) was 1240 ng·h/mL.

**Q.** What about the AUC(0-t) ([4]; human, plasma, oral, sunitinib without grapefruit juice, steady state, mean (range)) of the same compound?
**A.** The AUC(0-t) was 1120 ng·h/mL.

**Q.** What about the Cmax [4, 9] of the same compound?
**A.** The Cmax was 14.4 ng/mL.

**Q.** And the Cmax ([4]; human, plasma, oral, sunitinib without grapefruit juice, mean (range))?
**A.** Its Cmax is 13 ng/mL.

**Q.** And the “Increase of sunitinib exposure” value ([4]; sunitinib 24 h after last GJ consumption)?
**A.** Its value is ~ 5.3%.

**Q.** What about the “Increase of sunitinib exposure” value ([4]; sunitinib 72 h after last GJ consumption) of the same compound?
**A.** The value was ~ 1.3%.

**Q.** What about the “Increase of sunitinib exposure” value ([4]; sunitinib started 1 week after last GJ consumption) of the same compound?
**A.** The value was ~ 0.07%.

**Q.** And the T max [4, 10]?
**A.** Its T max is 8.2 (2.8–12.4) h.

**Q.** And the “t 1/2 (elimination half-life)” value [4, 10]?
**A.** The value was 53 (12–107) h.

**Q.** And the “Time to reach steady-state PK” value [5]?
**A.** The value was ~ 8 days.

**Q.** And the “Protein binding in vitro” value [6]?
**A.** Its value is “extensively protein bound”.

**Q.** What about the “Substrate of drug transporter ABCB1” value (ABCB1) of the same compound?
**A.** The value was “moderate substrate”.

**Q.** What about the “Substrate of drug transporter ABCG2” value (ABCG2) of the same compound?
**A.** Its value is “moderate substrate”.

**Q.** And the “Apparent volume of distribution” value [7]?
**A.** Its value is ~ 2,000 liters.

**Q.** What about the “Effect of food intake on pharmacokinetics” value [7] of the same compound?
**A.** Its value is “does not affect”.

**Q.** What about the “Interpatient variability in sunitinib clearance” value [7] of the same compound?
**A.** Its value is ~ 40%.

**Q.** And the half-life [7]?
**A.** Its half-life is ~ 50 h.
